From patent US7417034B2, “Pharmaceutically active uridine esters” (Trommsdorff GmbH & Co. KG Arzeneimittel, priority 2001, dated 2008)
“Also recorded” adds a separate entry of the source. Where two headings read alike, the source gives them in different places.

How the values were obtained:
[1] = tested on: permanent MCA occlusion in NMRI mice; details: for effect on infarct area (in words): versus controls; for infarct area, Mean: evaluated 2 days after, vehicle only 29.89
Method: The neuroprotective effects of α-lipoic acid and more pronounced of dihydrolipoic acid are well known (P. Wolz, J. Krieglstein, Lipoic Acid in Health and Disease, New York, Basel, Hong Kong, Marcel Dekker Inc., 1997, pp. 205-225). Thus, dihydrolipoic acid was chosen as a positive control for comparison reasons.
Permanent middle cerebral artery (MCA) occlusion was performed in male NMRI mice (12 to 17 animals per group) according to the method described by Welsh et al. (J. Neurochem. 1987, 846-851). Briefly, after the mice were anesthetized with tribromoethanol (600 mg/kg intraperitoneally), a small hole was drilled in the skull to expose the middle cerebral artery. The stem of the middle cerebral artery and both branches were permanently occluded by electrocoagulation. Body temperature was maintained at 37° C.±1° C. with a heating lamp during the surgical procedure. Afterwards, the mice were kept at an environmental temperature of 30° C. for 2 hours after MCA occlusion.
For histologic evaluation, the mice were anesthetized again with tribromoethanol and perfused intraperitoneally with a 1.5% solution of neutral red (0.5 ml) 2 days after middle cerebral artery occlusion. The brains were removed and stored in a fixative (4% formalin in phosphate buffer solution, pH 7.4) for 24 hours.
The tissue on the brain surface unstained by neutral red was determined (in square millimeters) as infarcted surface area by means of an image analyzing system (Kontron, Eching, Germany) according to the publication of C. Backhauβ.
The injection of compound 5′, dihydrolipoic acid, and the vehicle only was performed intraperitoneally 1 hour before MCA occlusion. Compound 5′ and dihydrolipoic acid were dissolved in 25% macrogol 400 (vehicle). The injected volume was always 0.25-0.30 ml per mouse. Doses of 100, 150, and 500 mg/kg compound 5′ and 150 mg/kg dihydrolipoic acid were used. The control group received the vehicle (0.25-0.30 ml 25% macrogol 400 per mouse) only.
The differences between compound 5′-treated, dihydrolipoic acid-treated, and vehicle-treated animals were evaluated statistically according to the ANOVA and DUNCAN test.

[2] = tested on: dopamine and DOPAC concentration in the Striatum; test: Dopamine and DOPAC concentration in rat Striatum, sodium malonate neurotoxicity model; format: in vivo, Wistar rats
Description: (§1) This example was selected to determine the effect of the compounds of the present invention on the concentration of dopamine its metabolite 3,4-dihydroxyphenyl acetic acid (DOPAC) and 5-hydroxytryptamine (5-HT or Serotonin) and its metabolite 5-hydroxyindol acetic acid (5-HIAA) in the substantia nigra and the Striatum of Wistar rats (Charles River, Sulzbach Rosenberg).
(§2) Said two brain regions were selected in order to examine dopaminergic neurons, because it is well known that said neurons are sensitive to neurotoxines which may cause M. Parkinson, Alzheimer, and Chorea Huntington. The method as described below was used to determine degenerative processes. Sodium malonate was used as a neurotoxic substance within said method.
It is known that sodium malonate increases the release von dopamine in the Striatum of the test animals. Groups of six Wistar rats each have been used as test animals. Thus, the dopamine concentration can be used as an indicator in order to determine the harmful effect of neurotoxines.
100 mg of compound 5′ were dissolved in 5 ml 50% propan-1,2-diol (Merck, Darmstadt). Four 5 ml portions of compound 5′ were administered intraperitoneal to the test animals. The first portion was administered in the evening of the first test day, the second portion during the next morning, the third portion in the evening of the second test day and the late portion during the morning of the third test day. Thirty minutes after the last application of compound 5′ 2 μmol sodium malonate dissolved in physiologic sodium chloride solution were injected into the left Striatum by means of a precision pump (flow rate 0.5 μl/min.) after having anesthetized the rats (Ketamin: 80 mg/kg and Xylasin: 6-10 mg/kg).
(§3) Four days after sodium malonate application, the Striatum and the treated and untreated part of the substantia nigra was separately excised, weighted, homogenized with perchloric acid, and centrifuged. Aliquots of the supernatants were subsequently subjected to HPLC and by the means of HPLC-ELCD the amount of dopamine, DOPAC, 5-HT, 5-HIM, and 3-methoxytyramine was […] measured.

[3] = tested on: hippocampal pyramid cells; test: in-vitro Hippocampus cuts: glucose-induced over-sensitiveness of pyramid cells (population spike); format: cell-based, rats; details: 30 mM glucose; for IC50: amplitude of population spike, read-out: calculated IC50-value, reduction of glucose-induced over-sensitiveness; for concentration range of activity: population spike
Description: The model used to determine the effect of the compounds of the present invention on treating diabetes and/or polyneuropathy comprises the use of in-vitro Hippocampus cuts for detecting the over-sensitiveness of pyramid cells due to the enhancement of the glucose concentration. Said over-sensitiveness could be antagonized dose-dependent by the use of a compound of the general formula (I).
The Hippocampus cuts of rats present a validated model for determination of interaction between a drug substance which is in direct contact with neuronal tissue. The interaction between a pharmaceutically active compound and the brain tissue can be examined directly, because of the maintenance of the three dimensional structure of the tissue within the in-vitro Hippocampus cut. Said compounds act on a special population of nerve cells, the pyramid cells of the Hippocampus. It is known that the synapse between pyramid cells and Schaffer-collaterals (which can be electrically stimulated) use the neurotransmitter glutamate for the process of signal transduction. The result of the electric stimulation, the so called population spike, represents the amount of activated pyramid cells. Other known models allow the in-vitro determination of a neuronal network only within a time frame of up to 8 hours. The advantage of this model is that neuronal network can be analyzed in-vitro over a much longer period after chemical or electric provocation of the cells. The cells are brought to an elevated level of stimulation which allows a long term measurement of pharmacologically active compounds under patho-physiologic conditions (W. Dimpfel et al., Antimicrobial Agents and Chemotherapy 1991, 1142-1146; W. Dimpfel et al., Eur. J. Med. Res. 1996, 1, 523-527).
Within the present method the level of stimulation was elevated by the use of an increased concentration of glucose in the superfusion medium in order to measure the antagonistic effect of the compounds of the present invention. Because of the fact that α-lipoic acid had been applied to this method (W. Dimpfel et al., Eur. J. Med. Res. 1996, 1, 523-527), compound 5′ was selected as a close related compound in order to produce reasonable results when comparing α-lipoic acid and uridine with compound 5′. Thus, α-lipoic acid and uridine were selected as reference.
21 adult male CD rats had been used within the present studies. The Hippocampus was isolated after anesthetization and exsanguination of the test animals. The middle part of the Hippocampus was fixed by means of a glue in phosphate-buffered saline (NaCl: 124 mM, KCl: 5 mM, CaCl2: 2 mM, MgSO4: 2 mM, NaH2PO4: 1.25 mM, NaHCO3: 26 mM, glucose: 10 mM; control solution: ACSF; Carl Roth, Karlsruhe, Germany). The Hippocampus was subsequent cut into slides of […] by means of a Vibratom (Rhema Labortechnik). The Hippocampus cuts were stored at least one hour before the test runs in an incubation chamber under carbogen (S. J. Schiff, G. G. Somjen, Brain Research 1985, 345, 279-284).
The experiment was carried out in a so called “Base Unit with Haas Top” (Medical Systems Corporation, U.S.A.) at a temperature of 35° C. according to the protocol of H. L. Haas and R. W. Greene (Neurotransmitter and cortical function; ed. M. Avoli, T. A. Reader, R. W. Dykes and P. Gloor, pp. 483-494, Plenum Publishing Corp.). The Hippocampus cut was placed on a piece of gauze and perfused by means of peristaltic pumps. The test apparatus was flushed with carbogen (flow rate: 200 ml per hour) in order to maintain the necessary oxygen supply.
The CA2-region was stimulated by means of a stimulus generator (laboratory computer, Pro Science) and a bipolar concentric steel electrode (Rhodes Medical Systems, U.S.A.). A pulse width of 200 μs was used and the amperage was constantly kept at 200 μA. The stimulus generator released four single stimulation signals within intervals of 20 seconds which released a total number of four population spikes in the Hippocampus cut. […]

[4] = tested on: 5-HT and 5-HIAA level in substantia nigra; test: 5-HT and 5-HIAA level in rat substantia nigra; format: in vivo, Wistar rats; details: four i.p. portions
Description: as §1, §2
100 mg of compound 5′ were dissolved in 5 ml 50% propan-1,2-diol (Merck, Darmstadt). Four 5 ml portions of compound 5′ were administered intraperitoneal to the test animals. […]
as §3

[5] = 150 mg/kg intraperitoneally 1 hour before MCA occlusion
[6] = compound alone, four i.p. portions, p<0.05
[7] = 2 μmol sodium malonate injected into left Striatum, four days after, p<0.001

## O=C(O)CCCC[C@@H](S)CCS (racemic) [dihydrolipoic acid, reference compound]
[1]; 150 mg/kg i.p.
  effect on infarct area (in words): no effect at all
[1]; [5]
  infarct area, Mean: 27.94 square millimeters

## O=C(CCCCC(S)CCS)OC[C@H]1O[C@@H](n2ccc(=O)[nH]c2=O)[C@H](O)[C@@H]1O (stereo partly drawn) [Compound 5′, (2′R,3′S,4′R,5′R)-6,8-Dimercapto-octanoic acid 5′-(2,4-dioxo-3,4-dihydro-2H-pyrimidine-1-yl)-3′,4′-dihydroxy-tetrahydrofuran-2′-ylmethyl ester]
[1]; 100 mg/kg intraperitoneally 1 hour before MCA occlusion
  infarct area, Mean: 26.22 square millimeters
[1]; [5]
  infarct area, Mean: 27.00 square millimeters
[1]; 500 mg/kg i.p.
  effect on infarct area (in words): no longer statistically reduced; also recorded: only a slight neuroprotective effect
[1]; 500 mg/kg intraperitoneally 1 hour before MCA occlusion
  infarct area, Mean: 28.24 square millimeters
[1]; lowest dose, 100 mg (100 mg/kg) i.p., versus vehicle
  effect on infarcted area (in words): significantly reduced the infarcted area; also recorded: most pronounced
[1]; mice of the MCA occlusion study, 100-500 mg/kg i.p.
  toxic effects in mice: no toxic effects could be detected
[2]; FIG. 4, relatively low concentrations
  compensation of malonate-induced dopamine depletion in rat striatum (in words): can almost be compensated
[2]; [6]
  change of the concentration of DOPAC in the Striatum: +10%
  change of the concentration of dopamine in the Striatum: +18%
[2]; compound i.p. together with 2 μmol sodium malonate into left Striatum
  more dopamine in comparison to the application of malonate only: +44%
[3]; rat Hippocampus cuts
  reduction of the elevated stimulation level / over-sensitiveness (in words): able to reduce dose-dependent the elevated stimulation level; also recorded: most effectively treated; also recorded: able to significantly reduce the increased over-sensitiveness
  IC50: 5 µM
  concentration range of activity: 1 to 25 µM
[4]; FIG. 5a
  5-HT concentration in rat substantia nigra (in words): significantly increase; also recorded: increased dramatically
[4]; FIG. 5b
  5-HIAA level in rat substantia nigra (in words): significantly increase; also recorded: increased dramatically

## O=C(CCCC[C@@H]1CCSS1)OC[C@H]1O[C@@H](n2ccc(=O)[nH]c2=O)[C@H](O)[C@@H]1O [Compound R-5, (2′R,3R,3′S,4′R,5′R)-5-[1,2]Dithiolan-3-yl-pentanoic acid 5′-(2,4-dioxo-3,4-dihydro-2H-pyrimidine-1-yl)-3′,4′-dihydroxy-tetrahydrofuran-2′-ylmethyl ester]
[3]; rat Hippocampus cuts
  IC50: 8 µM
  concentration range of activity: 1 to 15 µM

## O=C(CCCC[C@H]1CCSS1)OC[C@H]1O[C@@H](n2ccc(=O)[nH]c2=O)[C@H](O)[C@@H]1O [Compound S-5, (2′R,3S,3′S,4′R,5′R)-5-[1,2]Dithiolan-3-yl-pentanoic acid 5′-(2,4-dioxo-3,4-dihydro-2H-pyrimidine-1-yl)-3′,4′-dihydroxy-tetrahydrofuran-2′-ylmethyl ester]
[3]; rat Hippocampus cuts
  IC50: 4 µM
  concentration range of activity: 1 to 10 µM

## O=C([O-])CC(=O)[O-].[Na+].[Na+] [malonate, sodium malonate, reference compound]
[2]; [7]
  change of the concentration of DOPAC: −30%
  change of the concentration of dopamine: −44%

## O=c1ccn([C@@H]2O[C@H](CO)[C@@H](O)[C@H]2O)c(=O)[nH]1 [uridine]
[3]; Rattus norvegicus
  IC50: 40 µM
[3]; rat Hippocampus cuts
  reduction of the elevated stimulation level / over-sensitiveness (in words): able to reduce dose-dependent the elevated stimulation level; also recorded: only weaker effects; also recorded: much weaker effects

## O=C(O)CCCCC1CCSS1 (stereo not drawn) [α-lipoic acid, reference compound]
[3]; rat Hippocampus cuts
  reduction of the elevated stimulation level / over-sensitiveness (in words): able to reduce dose-dependent the elevated stimulation level; also recorded: only weaker effects; also recorded: much weaker effects
  IC50: ~200 µM
  concentration range of activity: ≤ 400 µM
